Laboratory results as given in article PMC6934184, “Selective DNA-PKcs inhibition extends the therapeutic index of localized radiotherapy and chemotherapy” (The Journal of Clinical Investigation, 2019).

Target: T1, KIT D816V (Homo sapiens, UniProt P10721, D816V)
T1 construct: purchased Thermo Fisher Scientific (Life Technologies) SelectScreen
Test: SelectScreen LanthaScreen
Format: binding
Settings: read-out: % displacement
Method in brief: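 SelectScreen broad panel; activity (Z'LYTE, Adapta) plus binding formats. ATP: Km app for CSF1R Z'LYTE; 10 for CAMK1 Adapta. Readout = % per kinase.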

T1 sequence (P10721 26-976 D816V): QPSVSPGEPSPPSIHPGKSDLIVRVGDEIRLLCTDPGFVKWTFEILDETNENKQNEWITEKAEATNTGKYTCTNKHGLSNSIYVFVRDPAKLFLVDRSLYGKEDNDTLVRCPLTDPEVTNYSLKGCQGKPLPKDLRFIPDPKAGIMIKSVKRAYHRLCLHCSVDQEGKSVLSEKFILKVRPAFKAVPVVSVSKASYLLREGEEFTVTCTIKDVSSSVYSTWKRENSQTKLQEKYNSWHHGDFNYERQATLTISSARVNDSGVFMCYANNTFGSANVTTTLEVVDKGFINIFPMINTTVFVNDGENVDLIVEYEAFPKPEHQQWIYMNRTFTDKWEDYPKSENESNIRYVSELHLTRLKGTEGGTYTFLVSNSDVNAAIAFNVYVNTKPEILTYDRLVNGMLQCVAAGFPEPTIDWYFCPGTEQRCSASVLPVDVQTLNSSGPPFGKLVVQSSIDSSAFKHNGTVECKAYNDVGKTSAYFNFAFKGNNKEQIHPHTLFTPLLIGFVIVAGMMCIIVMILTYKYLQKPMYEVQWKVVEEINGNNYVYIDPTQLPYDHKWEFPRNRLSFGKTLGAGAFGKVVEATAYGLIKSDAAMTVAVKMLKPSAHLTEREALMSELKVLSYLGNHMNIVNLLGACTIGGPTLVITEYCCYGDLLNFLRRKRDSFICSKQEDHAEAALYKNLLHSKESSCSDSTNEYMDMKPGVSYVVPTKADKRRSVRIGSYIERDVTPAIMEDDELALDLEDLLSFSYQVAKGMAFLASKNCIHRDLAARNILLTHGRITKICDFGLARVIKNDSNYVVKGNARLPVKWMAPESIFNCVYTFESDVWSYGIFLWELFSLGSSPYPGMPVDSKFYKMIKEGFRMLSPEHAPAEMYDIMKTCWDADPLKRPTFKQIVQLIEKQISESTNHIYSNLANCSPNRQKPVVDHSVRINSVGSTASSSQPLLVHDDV

With `CN(C(=O)CN1CCOCC1)c1ccc2sc3c(-c4cccc5c(=O)cc(N6CC7CCC(C6)O7)oc45)cccc3c2c1` [NU5455] the inhibition at 1 µM was 0.9%.
